Structures can show the parent of a compound that is named as a salt.

Data on eight compounds can be found in US10576077B2, “Pharmaceutical salt forms of Cepharanthine and Tetrandrine” (Southwest Research Institute, priority 2015, dated 2020).

Data set [1] is described as follows: Solubility of Cepharanthine salts in water. The data set is classed as physicochemical.
Data set [2] is classed as physicochemical. On the procedure: A small amount of the sample (0.6 ml) was removed from each vial and centrifuged to collect 0.3 ml clear supernatant.
The sample was filtered through a 0.45 μm PTFE syringe filter and the filtrate sent for HPLC analysis (Table 10).

Data set [3] deals with rat test animals. Put plainly: Oral dosing of concentrated CEPN.2HCl water solutions in rats. Particulars: ENG sample, concentrated water solution. The data set is classed as in vivo.

`COc1ccc2cc1Oc1ccc(cc1)C[C@H]1c3c(cc4c(c3Oc3cc5c(cc3OC)CCN(C)[C@@H]5C2)OCO4)CCN1C` [HBr salt, Cepharanthine bis-hydrobromide]: the solubility in data set [1] (read-out: Final Concentration (solubility in water)) was found to be 17.1 mg/mL.
In data set [2], CEPN.2HCl [16-0203-012-097-27] returned a Sample solubility of 31.9 mg/mL.
The same measure, in the same setting: under CEPN.2HCl [16-0203-012-098-10] stands 38.7 mg/mL; under CEPN.2HCl [16-0203-012-098-27], 39.7 mg/mL; under CEPN.2HCl [16-0203-012-105-23], 36.5 mg/mL.
Consider CEPN.2HCl [16-0203-012-119-35], for which the Sample solubility in data set [2] was determined as 33.9 mg/mL.
On to “Cepharanthine bis-pyruvate [Pyruvic acid salt]”, for which, in data set [1], the “Final Concentration (solubility in water)” value is given as 488 mg/mL.
Take Cepharanthine.2HCl [CEPN.2HCl]: in data set [1], the “Final Concentration (solubility in water)” value is 51.6 mg/mL. The “Effect of oral dosing of concentrated water solutions” value in data set [3] is “gelation in the stomach of the rat test animals and resultant toxic effects”.
